According to publication PMC10406430 (Neuro-Oncology Advances, 2023):
Like-named read-outs stand apart in the source and are kept apart here. Marks after values point to notes of the source that are not given here.

Experiments:
[1] = Plasma pharmacokinetics of PAC-1 and TMZ (LC-MS/MS, non-compartmental analysis); format: in vivo, human; settings: for AUC(0-inf) / CL/F / Cmax / Tmax / half-life: human, plasma, po; for AUC(0-inf): read-out: AUC0-∞, geometric mean (geometric CV%); for CL/F: read-out: CL/F, geometric mean (geometric CV%) (converted); for Cmax: read-out: Cmax, geometric mean (geometric CV%); for Tmax: read-out: Tmax, median (range); for half-life: read-out: t1/2-λ, geometric mean (geometric CV%) (converted)
Method: Pharmacokinetics (PK) were assessed in each dose cohort for PAC-1 following doses administered on days 7 (without TMZ) and 12 (with TMZ) of the first cycle and TMZ on day 12 of cycle 1. Both drugs were administered under fasting conditions in the morning for PAC-1 and morning or evening for TMZ. To facilitate the PK study and amplify any PK interaction between drugs, the administration of TMZ was standardized to occur in the morning on cycle 1, day 12 two hours before PAC-1. Plasma samples were collected on the mornings of days 7 and 12 of cycle 1 prior to oral ingestion of TMZ (day 12 only), 1 hour (day 12) or immediately (day 7) before administration of PAC-1 and at 0.5, 1, 2, 4, 6, 8, 10, and 24 hours after ingestion of PAC-1 (both days). The PAC-1 and TMZ concentrations in plasma were determined by validated high-performance liquid chromatography and tandem mass spectrometry (LC-MS/MS) assays. Non-compartmental analysis of the PAC-1 and TMZ plasma concentration-time data was performed using WinNonlin version 8.1 (Certara. L.P., Princeton, NJ). The analysis occurred at steady state for PAC-1 and non-steady state conditions for TMZ. Parameters included: maximum plasma concentration (Cmax), time at Cmax (Tmax), minimum plasma concentration at steady-state (Css,min), area under the PAC-1 plasma concentration-time curve over the steady-state dosing interval (AUC0-τ,ss), area under the TMZ plasma concentration-time curve from time zero to infinity (AUC0-∞), oral clearance (CL/F), volume of distribution (V/F), and terminal phase half-life (t1/2).
The PK parameters were logarithmically (natural) transformed and Css-max, Css-min, and AUC0-τ,ss normalized for a 500 mg dose across dose groups for the analysis by multiplying the parameter by the quotient of 500 mg divided by the actual dose. […] Lack of interaction was concluded when the 90% CI for the ratio was contained within the conventional bioequivalence range of 0.80 to 1.25.

[2] = test system: cytochrome P450 isozymes (CYP) 2C19, 2D6, and 3A4; assay: In vitro studies of hepatic metabolism pathways; format: in vitro ADME; settings: preliminary evidence from in vitro studies (unpublished); CYP 2C19, 2D6, 3A4
[3] = test system: P-glycoprotein efflux pump; settings: cited from earlier work
[4] = mice; consistent with cLogBB prediction models; cited from earlier work
human glioma cell lines = settings: single agent and in combination with TMZ; cited from earlier work
[5] = test system: intracranial models in rodents; settings: syngeneic and xenograft models, single agent and in combination with TMZ; cited from earlier work
glioma = settings: PAC-1 in combination with TMZ and radiation; cited from earlier work
systemic solid tumors = settings: cited from earlier work
[6] = design: method as in earlier work; settings: animal studies and a single clinical trial; ref 1-3 (supplement list); cited from earlier work
[7] = PAC-1 375 mg/day oral, Cycle 1 Day 7 (alone)
[8] = PAC-1 375 mg/day oral, Cycle 1 Day 12 (with TMZ)
[9] = PAC-1 500 mg/day oral, Cycle 1 Day 7 (alone)
[10] = PAC-1 500 mg/day oral, Cycle 1 Day 12 (with TMZ)
[11] = PAC-1 625 mg/day oral, Cycle 1 Day 7 (alone)
[12] = PAC-1 625 mg/day oral, Cycle 1 Day 12 (with TMZ)
[13] = PAC-1, Cycle 1 Day 12 (with TMZ)/Cycle 1 Day 7 (alone)
[14] = PAC-1, Cycle 1 Day 12 (with TMZ)/Cycle 1 Day 7 (alone), normalized to 500 mg
[15] = 150 mg/m2, TMZ 150 mg/m^2 oral with PAC-1 375 mg/day
[16] = 150 mg/m2, TMZ 150 mg/m^2 oral with PAC-1 500 mg/day
[17] = 150 mg/m2, TMZ 150 mg/m^2 oral with PAC-1 625 mg/day

C=CCc1cccc(/C=N/NC(=O)CN2CCN(Cc3ccccc3)CC2)c1O [PAC-1, procaspase-activating compound-1]
increase in PAC-1 CL/F with dexamethasone co-administration ([1]; 375 and 500 mg/day groups): approximately 18%
AUCss,0-τ, geometric mean (geometric CV%) [1, 7]: 23434 (12.0) h*ng/ml
CL/F, geometric mean (geometric CV%) [1, 7]: 185 (26.6) ml/h/kg
Cmax, geometric mean (geometric CV%) [1, 7]: 1728 (19.6) ng/ml
Css-min, geometric mean (geometric CV%) [1, 7]: 647.8 (11.0) ng/ml
Tmax, median (range) [1, 7]: 3.00 (1.98-6.00) h
V/F, geometric mean (geometric CV%) [1, 7]: 6.1 (36.1) L/kg
AUCss,0-τ, geometric mean (geometric CV%) [1, 8]: 22519 (13.8) h*ng/ml
CL/F, geometric mean (geometric CV%) [1, 8]: 193 (32.9) ml/h/kg
Cmax, geometric mean (geometric CV%) [1, 8]: 1802 (19.7) ng/ml
Css-min, geometric mean (geometric CV%) [1, 8]: 525.4 (12.3) ng/ml
Tmax, median (range) [1, 8]: 3.00 (1.98 - 9.83) h
V/F, geometric mean (geometric CV%) [1, 8]: 5.4 (27.3) L/kg
t1/2-λ, geometric mean (geometric CV%) [1, 8]: 20.0 (12.0) h
AUCss,0-τ, geometric mean (geometric CV%) [1, 9]: 32823 (28.0) h*ng/ml
CL/F, geometric mean (geometric CV%) [1, 9]: 203 (38.1) ml/h/kg
Cmax, geometric mean (geometric CV%) [1, 9]: 3026 (34.0) ng/ml
Css-min, geometric mean (geometric CV%) [1, 9]: 776.8 (27.9) ng/ml
Tmax, median (range) [1, 9]: 2.34 (0.50- 5.92) h
V/F, geometric mean (geometric CV%) [1, 9]: 5.1 (53.0) L/kg
t1/2-λ, geometric mean (geometric CV%) [1, 9]: 17.6 (18.9) h
AUCss,0-τ, geometric mean (geometric CV%) [1, 10]: 34274 (13.2) h*ng/ml
CL/F, geometric mean (geometric CV%) [1, 10]: 194 (26.0) ml/h/kg
Cmax, geometric mean (geometric CV%) [1, 10]: 2938 (32.2) ng/ml
Css-min, geometric mean (geometric CV%) [1, 10]: 770.0 (19.6) ng/ml
Tmax, median (range) [1, 10]: 2.01 (1.92 - 3.07) h
V/F, geometric mean (geometric CV%) [1, 10]: 5.0 (40.3) L/kg
t1/2-λ, geometric mean (geometric CV%) [1, 10]: 17.9 (31.1) h
AUCss,0-τ, geometric mean (geometric CV%) [1, 11]: 24634 (45.2) h*ng/ml
CL/F, geometric mean (geometric CV%) [1, 11]: 322 (38.0) ml/h/kg
Cmax, geometric mean (geometric CV%) [1, 11]: 1876 (47.5) ng/ml
Css-min, geometric mean (geometric CV%) [1, 11]: 565.9 (47.4) ng/ml
Tmax, median (range) [1, 11]: 1.98 (0.82 – 2.00) h
V/F, geometric mean (geometric CV%) [1, 11]: 8.7 (40.6) L/kg
t1/2-λ, geometric mean (geometric CV%) [1, 11]: 18.7 (42.9) h
AUCss,0-τ, geometric mean (geometric CV%) [1, 12]: 21854 (39.7) h*ng/ml
CL/F, geometric mean (geometric CV%) [1, 12]: 363 (31.2) ml/h/kg
Cmax, geometric mean (geometric CV%) [1, 12]: 2124 (57.9) ng/ml
Css-min, geometric mean (geometric CV%) [1, 12]: 480.0 (40.4) ng/ml
Tmax, median (range) [1, 12]: 1.03 (1.00 - 4.17) h
V/F, geometric mean (geometric CV%) [1, 12]: 9.7 (17.0) L/kg
t1/2-λ, geometric mean (geometric CV%) [1, 12]: 18.5 (32.9) h
PK interactions between PAC-1 and TMZ ([1]; PAC-1 375, 500 or 625 mg/day with TMZ 150 mg/m^2): did not identify PK interactions
CL/F, Geometric Least-Square Mean Ratio (90%CI) [1, 13]: 1.07 (0.98, 1.17)
t1/2-λ, Geometric Least-Square Mean Ratio (90%CI) [1, 13]: 1.04 (0.90, 1.22)
AUCss,0-τ, Geometric Least-Square Mean Ratio (90%CI) [1, 14]: 0.93 (0.85, 1.02) ^†
Cmax, Geometric Least-Square Mean Ratio (90%CI) [1, 14]: 1.02 (0.85, 1.23) ^†
Css-min, Geometric Least-Square Mean Ratio (90%CI) [1, 14]: 0.86 (0.80, 0.92) ^†
dose proportionality of PAC-1 plasma concentrations ([1]; between 375 mg/day and 500 mg/day): increased proportionally
PAC-1 plasma concentrations below predicted levels ([1]; single subject in the 625 mg group, same without and with TMZ): approximately 70%
PAC-1 CL/F ([1]; subjects from the 375 and 500 mg/day groups receiving dexamethasone): 3.68 mL/min/kg
pathways of hepatic metabolism [2]: possible pathways of hepatic metabolism
substrate of the P-glycoprotein efflux pump [3]: not a substrate
blood-brain barrier penetration [4]: significantly penetrate the blood-brain barrier
activity against human glioma cell lines (human glioma cell lines): promising activity
activity in intracranial models in rodents [5]: promising activity
responses in canine cancer patients with glioma (glioma): all treated glioma dogs had responses, including one complete response
recommended phase 2 dose (RP2D) (systemic solid tumors; oral single agent PAC-1, patients with systemic solid tumors): 750 mg/day
relationship between PAC-1 dose and AUC (systemic solid tumors; single agent, doses up to 750 mg/day): linear relationship
extraction, elimination and oral bioavailability [6]: high extraction ratio, hepatically eliminated drug with low and variable oral bioavailability

Cn1nnc2c(C(N)=O)ncn2c1=O [temozolomide, reference compound]
impact of PAC-1 dose on PK parameters of TMZ (mixed effects analyses) ([1]; PAC-1 375, 500, 625 mg/day): did not significantly (p > 0.05) impact any PK parameters of TMZ
V/F, geometric mean (geometric CV%) ([1]; TMZ 150 mg/m^2 oral with PAC-1 375 mg/day): 0.40 (16.7) L/kg
V/F, geometric mean (geometric CV%) ([1]; TMZ 150 mg/m^2 oral with PAC-1 500 mg/day): 0.44 (15.0) L/kg
V/F, geometric mean (geometric CV%) ([1]; TMZ 150 mg/m^2 oral with PAC-1 625 mg/day): 0.44 (15.7) L/kg
AUC(0-inf) [1, 15]: 22800 ng·h/mL
CL/F [1, 15]: 2.52 mL/min/kg
Cmax [1, 15]: 7310 ng/mL
Tmax [1, 15]: 1 h
half-life [1, 15]: 1.86 h
AUC(0-inf) [1, 16]: 23800 ng·h/mL
CL/F [1, 16]: 2.63 mL/min/kg
Cmax [1, 16]: 7750 ng/mL
Tmax [1, 16]: 0.98 h
half-life [1, 16]: 1.93 h
AUC(0-inf) [1, 17]: 23900 ng·h/mL
CL/F [1, 17]: 2.67 mL/min/kg
Cmax [1, 17]: 7630 ng/mL
Tmax [1, 17]: 1 h
half-life [1, 17]: 1.92 h
